Assay results taken from ChEMBL document CHEMBL6103618, “Discovery of Novel Oxazolo[4,3-f]purine Derivatives as Antitumor Agents through PPIA Interaction” (J Med Chem, 2025).

Columns and labels:
CT26 = assay: Antiproliferative activity against mouse CT26 cells assessed as inhibition of cell viability incubated for 48 hrs by CCK8 assay; assay type: functional, cell-based; conditions: CT26, 48 h
HeLa = assay: Antiproliferative activity against human HeLa cells assessed as inhibition of cell viability incubated for 48 hrs by CCK8 assay; assay type: functional, cell-based
HepG2 = assay: Antiproliferative activity against human HepG2 cells assessed as inhibition of cell viability incubated for 48 hrs by CCK8 assay; assay type: functional, cell-based; conditions: HepG2, 48 h
[1] = Toxicity in BALB/c mouse implanted with mouse CT26 cells assessed as histopathological change in heart at 45 mg/kg, ip qd treated for 14 days by H and E staining based analysis; assay type: organism-based; conditions: in vivo, 336 h, time 14 day
PANC-1 = assay: Antiproliferative activity against human PANC-1 cells assessed as inhibition of cell viability incubated for 48 hrs by CCK8 assay; assay type: functional, cell-based; conditions: PANC-1, 48 h
[2] = Toxicity in BALB/c mouse implanted with mouse CT26 cells assessed as histopathological change in kidney at 45 mg/kg, ip qd treated for 14 days by H and E staining based analysis; assay type: organism-based; conditions: in vivo, 336 h, time 14 day
[3] = Toxicity in BALB/c mouse implanted with mouse CT26 cells assessed as change in body weight at 45 mg/kg, ip qd treated for 14 days; assay type: organism-based; conditions: in vivo, 336 h, time 14 day
[4] = Toxicity in BALB/c mouse implanted with mouse CT26 cells assessed as histopathological change in spleen at 45 mg/kg, ip qd treated for 14 days by H and E staining based analysis; assay type: organism-based; conditions: in vivo, 336 h, time 14 day
SW480 = assay: Antiproliferative activity against human SW480 cells assessed as inhibition of cell viability incubated for 48 hrs by CCK8 assay; assay type: functional, cell-based; conditions: SW480, 48 h
[5] = Toxicity in BALB/c mouse implanted with mouse CT26 cells assessed as histopathological change in liver at 45 mg/kg, ip qd treated for 14 days by H and E staining based analysis; assay type: organism-based; conditions: in vivo, 336 h, time 14 day
[6] = Toxicity in BALB/c mouse implanted with mouse CT26 cells assessed as histopathological change in lung at 45 mg/kg, ip qd treated for 14 days by H and E staining based analysis; assay type: organism-based; conditions: in vivo, 336 h, time 14 day
HCT-116 = assay: Antiproliferative activity against human HCT-116 cells assessed as inhibition of cell viability incubated for 48 hrs by CCK8 assay; assay type: functional, cell-based; conditions: HCT-116, 48 h
MCF7 = assay: Antiproliferative activity against human MCF7 cells assessed as inhibition of cell viability incubated for 48 hrs by CCK8 assay; assay type: functional, cell-based; conditions: MCF7, 48 h
[7] = molecular target: T1, Peptidyl-prolyl cis-trans isomerase A (Homo sapiens, UniProt P62937); assay: Inhibition of PPIA (unknown origin) using N-succinyl-Ala-Ala-Pro-Phe-p-nitroanilide as substrate preincubated for 1 hr followed by substrate addition measured for 6 mins by absorbance based assay
T1 sequence (P62937 whole entry): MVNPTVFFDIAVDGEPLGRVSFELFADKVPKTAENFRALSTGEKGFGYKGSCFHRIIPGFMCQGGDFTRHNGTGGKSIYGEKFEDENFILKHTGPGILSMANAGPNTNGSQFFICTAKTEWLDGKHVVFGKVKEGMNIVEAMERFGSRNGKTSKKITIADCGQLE

[8] = molecular target: T1, Peptidyl-prolyl cis-trans isomerase A; assay: Binding affinity to PPIA (unknown origin) assessed as dissociation constant
[9] = molecular target: T1, Peptidyl-prolyl cis-trans isomerase A; assay: Inhibition of PPIA (unknown origin)

Structure (SMILES) | IC50 (HeLa) [µM] | IC50 (HCT-116) [µM] | further results
O=c1[nH]cc(F)c(=O)[nH]1 [FLUOROURACIL] | 4.48 |  | IC50 (CT26): 3.35 µM; IC50 (HepG2): 21.9 µM; Activity [1]: Non-toxic; IC50 (PANC-1): 14.7 µM; Activity [2]: Non-toxic; Activity [3]: Toxic; Activity [4]: Non-toxic; IC50 (SW480): 14.2 µM; Activity [5]: Non-toxic; Activity [6]: Non-toxic
C=C(C(=O)OC)N1c2nc(Cl)nc(Cl)c2N2C(c3ccccc3Cl)OC(C(=O)OCC)(C(=O)OCC)C12 (racemic) | 0.89 | 0.67 | IC50 (CT26): 1.12 µM; IC50 (HepG2): 3.25 µM; IC50 (PANC-1): 4.46 µM; IC50 (MCF7): 1.9 µM; IC50 (SW480): 5.43 µM
CCOC(=O)/C=C/N1c2nc(Cl)nc(Cl)c2N2C(c3ccc(C)cc3)OC(C(=O)OCC)(C(=O)OCC)C12 (racemic) | 43.7 | 20.7 | 
CCOC(=O)/C=C/N1c2nc(Cl)nc(N)c2N2C(c3ccccc3)OC(C(=O)OCC)(C(=O)OCC)C12 (racemic) | > 50 | > 50 | 
CCOC(=O)/C=C/N1c2nc(Cl)nc(Cl)c2N2C(c3ccc(Cl)c(Cl)c3)OC(C(=O)OCC)(C(=O)OCC)C12 (racemic) | 16.4 | 10.9 | 
CCOC(=O)/C=C/N1c2nc(Cl)nc(Cl)c2N2C(c3ccccc3)OC(CO)C12 (racemic) | 18.3 | 11.4 | 
CCOC(=O)/C=C/N1c2ncnc(Cl)c2N2C(c3ccccc3)OC(C(=O)OCC)(C(=O)OCC)C12 (racemic) | > 50 | 34 | 
CCOC(=O)/C=C/N1c2nc(Cl)nc(Cl)c2N2C(c3ccccc3C)OC(C(=O)OCC)(C(=O)OCC)C12 (racemic) | 12.4 | 9.84 | 
CCOC(=O)/C=C/N1c2nc(Cl)nc(Cl)c2N2C(c3ccccc3I)OC(C(=O)OCC)(C(=O)OCC)C12 (racemic) | 10.2 | 3.73 | 
CCOC(=O)/C=C/N1c2nc(Cl)nc(Cl)c2N2C(c3ccccc3)OC(C(=O)OCc3ccccc3)(C(=O)OCc3ccccc3)C12 (racemic) | > 50 | > 50 | 
CCCSc1ncnc2c1N1C(c3ccccc3)OC(C(=O)OCC)(C(=O)OCC)C1N2/C=C/C(=O)OCC (racemic) | > 50 | > 50 | 
CCOC(=O)/C=C/N1c2ncncc2N2C(c3ccccc3)OC(C(=O)OCC)(C(=O)OCC)C12 (racemic) | > 50 | > 50 | 
CCOC(=O)/C=C/N1c2nc(Cl)nc(Cl)c2N2C(c3cccc([N+](=O)[O-])c3)OC(C(=O)OCC)(C(=O)OCC)C12 (racemic) | 6.52 | 4.33 | 
CCOC(=O)/C=C/N1c2nc(Cl)nc(Cl)c2N2C(c3cccc(Br)c3)OC(C(=O)OCC)(C(=O)OCC)C12 (racemic) | 11.7 | 7.92 | 
CCOC(=O)/C=C/N1c2nc(Cl)nc(Cl)c2N2C(c3ccc(I)cc3)OC(C(=O)OCC)(C(=O)OCC)C12 (racemic) | > 50 | 15.8 | 
C=C(C(=O)OC)N1c2nc(Cl)nc(Cl)c2N2C(c3ccccc3Br)OC(C(=O)OCC)(C(=O)OCC)C12 (racemic) | 2.15 | 3.11 | IC50 (CT26): 2.5 µM; IC50 (HepG2): 4.87 µM; IC50 (PANC-1): 4.61 µM; IC50 (MCF7): 3.49 µM; IC50 (SW480): 6.99 µM
CCOC(=O)/C=C/N1c2nc(Cl)nc(Cl)c2N2C(c3ccccc3F)OC(C(=O)OCC)(C(=O)OCC)C12 (racemic) | 2.12 | 2.19 | 
CC[C@H]1C[C@H](C)[C@@]2(NC1=O)O[C@@H](C[C@H](O)[C@@H](C)CC/C=C/C=C(\C)[C@@H]1C/C=C/C=C/[C@H](O)[C@H](C)[C@@H](O)[C@@H](CCC(C)=O)C(=O)N[C@@H](C(C)C)C(=O)N[C@@H](Cc3cc(O)cc(F)c3)C(=O)N3CCC[C@H](N3)C(=O)O1)[C@H](C)[C@H](O)[C@@H]2C |  |  | IC50 [7]: 0.00049 µM
C=C(C(=O)OCC)N1c2nc(Cl)nc(Cl)c2N2C(c3ccccc3)OC(C(=O)OCC)(C(=O)OCC)C12 (racemic) | 1.74 | 2.5 | 

Structure (SMILES) | IC50 (HeLa) [µM] | IC50 (HCT-116) [µM] | further results
CCOC(=O)/C=C/N1c2nc(Cl)nc(OC)c2N2C(c3ccccc3)OC(C(=O)OCC)(C(=O)OCC)C12 (racemic) | > 50 | > 50 | 
CCOC(=O)C1(C(=O)OCC)OC(c2ccccc2)N2c3c(Cl)nc(Cl)nc3N(/C=C/C(=O)OC(C)(C)C)C21 (racemic) | > 50 | > 50 | 
CCOC(=O)C1(C(=O)OCC)OC(c2ccccc2)N2c3c(Cl)nc(Cl)nc3N(/C=C/C(=O)OC)C21 (racemic) | 11.2 | 14.2 | 
C=C(C(=O)OCC)N1c2nc(Cl)nc(Cl)c2N2C(c3ccccc3Cl)OC(C(=O)OCC)(C(=O)OCC)C12 (racemic) | 2.8 | 2.47 | 
C=C(C(=O)OCC)N1c2nc(Cl)nc(Cl)c2N2C(c3ccccc3F)OC(C(=O)OCC)(C(=O)OCC)C12 (racemic) | 0.55 | 0.82 | 
CCOC(=O)/C=C/N1c2nc(Cl)nc(Cl)c2N2C(c3ccc(Cl)cc3)OC(C(=O)OCC)(C(=O)OCC)C12 (racemic) | > 50 | 7.14 | 
CCOC(=O)/C=C/N1c2nc(Cl)nc(Cl)c2N2C(c3ccc([N+](=O)[O-])cc3)OC(C(=O)OCC)(C(=O)OCC)C12 (racemic) | 9.73 | 4.94 | 
C=C(C(=O)OC)N1c2nc(Cl)nc(Cl)c2N2[C@H](c3ccccc3F)OC(C(=O)OCC)(C(=O)OCC)[C@@H]12 | 0.47 | 0.65 | 
C/C=C/C[C@@H](C)[C@@H](O)[C@H]1C(=O)N[C@@H](CC)C(=O)N(C)[C@H](C)C(=O)N(CC)[C@@H](C(C)C)C(=O)N[C@@H](C(C)C)C(=O)N(C)[C@@H](CC(C)C)C(=O)N[C@@H](C)C(=O)N[C@H](C)C(=O)N(C)[C@@H](CC(C)C)C(=O)N(C)[C@@H](CC(C)C)C(=O)N(C)[C@@H](C(C)C)C(=O)N1C [ALISPORIVIR] |  |  | Kd [8]: 0.008 µM
CCOC(=O)C1(C(=O)OCC)OC(c2ccccc2)N2c3c(Cl)nc(Cl)nc3N(/C=C/C(=O)OCc3ccccc3)C21 (racemic) | > 50 | > 50 | 
CCCSc1nc(Cl)nc2c1N1C(c3ccccc3)OC(C(=O)OCC)(C(=O)OCC)C1N2/C=C/C(=O)OCC (racemic) | > 50 | > 50 | 
C/C=C/C[C@@H](C)[C@@H](O)[C@H]1C(=O)N[C@@H](CC)C(=O)N(C)CC(=O)N(C)[C@@H](CC(C)C)C(=O)N[C@@H](C(C)C)C(=O)N(C)[C@@H](CC(C)C)C(=O)N[C@@H](C)C(=O)N[C@H](C)C(=O)N(C)[C@@H](CC(C)C)C(=O)N(C)[C@@H](CC(C)C)C(=O)N(C)[C@@H](C(C)C)C(=O)N1C [CYCLOSPORINE] | 2.17 |  | IC50 (CT26): 11.4 µM; IC50 (HepG2): 12.3 µM; IC50 (PANC-1): 13.3 µM; IC50 (MCF7): 6.12 µM; IC50 (SW480): 5.16 µM
CCOC(=O)/C=C/N1c2nc(Cl)nc(Cl)c2N2C(c3cccc(C)c3)OC(C(=O)OCC)(C(=O)OCC)C12 (racemic) | 26.2 | 10.4 | 
CCOC(=O)/C=C\N1c2nc(Cl)nc(Cl)c2N2C(c3ccccc3)OC(C(=O)OCC)(C(=O)OCC)C12 (centres undefined) | > 50 | > 50 | 
C.CC[C@@H]1NC(=O)[C@H]([C@H](O)[C@H](C)CCCCCCNC(C)=O)N(C)C(=O)[C@H](C(C)C)N(C)C(=O)[C@H](CC(C)C)N(C)C(=O)[C@H](CC(C)C)N(C)C(=O)[C@@H](C)NC(=O)[C@H](C)NC(=O)[C@H](CC(C)C)N(C)C(=O)[C@H](C(C)C)NC(=O)[C@H](CC(C)C)N(C)C(=O)[C@@H](C)N(C)C1=O |  |  | Ki [9]: 0.0025 µM
CCOC(=O)/C=C/N1c2nc(Cl)nc(Cl)c2N2C(c3ccc(Br)cc3)OC(C(=O)OCC)(C(=O)OCC)C12 (racemic) | 13.7 | 9.32 | 
CCOC(=O)/C=C/N1c2nc(Cl)nc(Cl)c2N2C(c3ccc(F)cc3)OC(C(=O)OCC)(C(=O)OCC)C12 (racemic) | 7.16 | 6.97 | 
C=C(C(=O)OCC)N1c2nc(Cl)nc(Cl)c2N2C(c3ccccc3Br)OC(C(=O)OCC)(C(=O)OCC)C12 (racemic) | 4.78 | 6.16 | 
